Results taken from patent US20150105252A1, “SUBSTITUTED PYRAZOLES AS HERBICIDES” (E I DU PONT DE NEMOURS AND COMPANY, priority 2013, published 2015).

Columns and labels:
blackgrass [1] = assay: Test C preemergence; type: in vivo, Alopecurus myosuroides
Outline: (§1)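 Scores of 0 (no effect) to 100 (complete control) were assigned by eye after 13–15 days, comparing treated pots with controls. Soil-applied (preemergence) treatments went onto seeds in loam and sand; foliar (postemergence) treatments onto 1- to 4-leaf plants in peat medium.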

ragweed = assay: Test C postemergence; type: in vivo, Ambrosia elation
Outline: as §1

pigweed [2] = assay: Test C postemergence; type: in vivo, Amaranthus retroflexus; conditions: for Pigweed plant response rating / Plant response rating, Pigweed: postemergence; for Pigweed plant response rating: 62 g ai/ha, scale 0 to 100
Outline: as §1

morningglory [3] = assay: Test C postemergence; type: in vivo, Ipomoea coccinea; conditions: for Plant response rating (scale of 0 to 100 where 0 is no effect and 100 is complete control), Morningglory: Postemergence, 31 g ai/ha, visually evaluated after 13 to 15 days; for Morningglory plant response rating / Plant response rating, Morningglory: postemergence; for Morningglory plant response rating: 62 g ai/ha, scale 0 to 100
Outline: as §1

barnyardgrass = assay: Test C preemergence; type: in vivo, Echinochloa crus-galli
Outline: as §1

ryegrass, Italian = assay: Test C preemergence; type: in vivo, Lolium multiflorum
Outline: as §1

johnsongrass = assay: Test C preemergence; type: in vivo, Sorghum halepense
Outline: as §1

wheat = assay: Test A preemergence; type: in vivo, Triticum aestivum; conditions: preemergence
Outline: (§2)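 Growth medium: loam soil blended with sand. Preemergence treatment used a directed soil spray right after planting; postemergence treatment targeted seedlings at one to two leaves (2–10 cm height). Response was judged by eye relative to untreated plants about 10 days later on a 0–100 control scale.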

blackgrass [4] = assay: Test C postemergence; type: in vivo, Alopecurus myosuroides; conditions: for Plant response rating (scale of 0 to 100 where 0 is no effect and 100 is complete control), Blackgrass: Postemergence, 31 g ai/ha, visually evaluated after 13 to 15 days; for Blackgrass plant response rating / Plant response rating, Blackgrass: postemergence; for Blackgrass plant response rating: 62 g ai/ha, scale 0 to 100
Outline: as §1

morningglory [5] = assay: Test C preemergence; type: in vivo, Ipomoea coccinea
Outline: as §1

corn = assay: Test A preemergence; type: in vivo, Zea mays; conditions: preemergence
Outline: as §2

pigweed [6] = assay: Test C preemergence; type: in vivo, Amaranthus retroflexus
Outline: as §1

morningglory [7] = assay: Test A preemergence; type: in vivo, Ipomoea spp.; conditions: preemergence
Outline: as §2

[8] = preemergence, 31 g ai/ha, visual rating, scale 0 to 100 (0 no effect, 100 complete control), 13 to 15 days
[9] = preemergence, 62 g ai/ha, scale 0 to 100 (0 no effect, 100 complete control), 13 to 15 days
[10] = preemergence, 125 g ai/ha, scale 0 to 100, 0 is no effect, 100 is complete control
[11] = Postemergence, 31 g ai/ha, visually evaluated after 13 to 15 days
[12] = postemergence, 250 g ai/ha, scale 0 to 100 (0 no effect, 100 complete control)
[13] = postemergence, 125 g ai/ha, scale 0 to 100, 0 no effect, 100 complete control
[14] = 250 g ai/ha, scale 0 to 100 (0 no effect, 100 complete control)
[15] = 125 g ai/ha, scale 0 to 100, 0 no effect, 100 complete control
[16] = 125 g ai/ha, visual injury, 0 to 100 scale, approx. 10 days
[17] = 500 g ai/ha, visual injury after approx. 10 days, 0 to 100 scale (0 no effect, 100 complete control)
[18] = preemergence, 125 g ai/ha, 13 to 15 days, scale 0 to 100, 0 = no effect, 100 = complete control
[19] = preemergence, 250 g ai/ha, scale 0 to 100, 0 is no effect, 100 is complete control
[20] = 125 g ai/ha, visual injury approx. 10 days after treatment

CCc1cc(C(=O)NCC(F)(F)F)nn1Cc1nc(C(F)(F)F)nn1C [Compound 107]
Plant response rating (scale of 0 to 100), Blackgrass (blackgrass [1]; Preemergence, 250 g ai/ha): 100
Blackgrass plant response rating (blackgrass [1]; [8]): 95
Blackgrass plant response rating (blackgrass [1]; [9]): 100
Blackgrass plant response rating (blackgrass [1]; [10]): 100
Plant response rating (scale of 0 to 100 where 0 is no effect and 100 is complete control), Ragweed (ragweed; [11]): 10
Ragweed plant response rating (ragweed; postemergence, 62 g ai/ha, scale 0 to 100): 65
Plant response rating, Ragweed (ragweed; [12]): 90
Plant response rating, Ragweed (ragweed; [13]): 85
Plant response rating (scale of 0 to 100 where 0 is no effect and 100 is complete control), Pigweed (pigweed [2]; [11]): 50
Pigweed plant response rating (pigweed [2]): 85
Plant response rating, Pigweed (pigweed [2]; [14]): 85
Plant response rating, Pigweed (pigweed [2]; [15]): 85
Plant response rating (scale of 0 to 100 where 0 is no effect and 100 is complete control), Morningglory (morningglory [3]): 75
Morningglory plant response rating (morningglory [3]): 80
Plant response rating, Morningglory (morningglory [3]; [14]): 80
Plant response rating, Morningglory (morningglory [3]; [15]): 80
Plant response rating (scale of 0 to 100), Barnyardgrass (barnyardgrass; Preemergence, 250 g ai/ha): 100
Barnyardgrass plant response rating (barnyardgrass; preemergence, 31 g ai/ha, scale 0 to 100 (0 no effect, 100 complete control), 13 to 15 days): 40
Barnyardgrass plant response rating (barnyardgrass; [9]): 100
Barnyardgrass plant response rating (barnyardgrass; [10]): 100
Plant response rating (scale of 0 to 100), Ryegrass, Italian (ryegrass, Italian; Preemergence, 250 g ai/ha): 100
Ryegrass, Italian plant response rating (ryegrass, Italian; [8]): 10
Ryegrass, Italian plant response rating (ryegrass, Italian; [9]): 60
Ryegrass, Italian plant response rating (ryegrass, Italian; [10]): 60
Plant response rating (scale of 0 to 100), Johnsongrass (johnsongrass; Preemergence, 250 g ai/ha): 100
Johnsongrass plant response rating (johnsongrass; [8]): 30
Johnsongrass plant response rating (johnsongrass; [9]): 65
Johnsongrass plant response rating (johnsongrass; [10]): 90
Wheat plant response rating (wheat; [16]): 10
Wheat plant response rating (wheat; [17]): 90
Plant response rating (scale of 0 to 100 where 0 is no effect and 100 is complete control), Blackgrass (blackgrass [4]): 10
Blackgrass plant response rating (blackgrass [4]): 10
Plant response rating, Blackgrass (blackgrass [4]; [14]): 35
Plant response rating, Blackgrass (blackgrass [4]; [15]): 15
Plant response rating (scale of 0 to 100), Morningglory (morningglory [5]; Preemergence, 250 g ai/ha): 100
Morningglory plant response rating (morningglory [5]; [8]): 90
Morningglory plant response rating (morningglory [5]; [9]): 100
Morningglory plant response rating (morningglory [5]; [10]): 100
Corn plant response rating (corn; [16]): 30
Corn plant response rating (corn; [17]): 80
Plant response rating (scale of 0 to 100), Pigweed (pigweed [6]; Preemergence, 250 g ai/ha): 100
Pigweed plant response rating (pigweed [6]; [8]): 100
Pigweed plant response rating (pigweed [6]; [9]): 100
Pigweed plant response rating (pigweed [6]; [10]): 100
Morningglory plant response rating (morningglory [7]; [16]): 90
Morningglory plant response rating (morningglory [7]; [17]): 100

CCCc1cc(C(=O)NC(C)C)nn1Cc1cc(C(F)(F)F)nn1C [Compound 201]
Blackgrass plant response rating (blackgrass [1]; [8]): 85
Blackgrass plant response rating (blackgrass [1]; [9]): 90
Plant response rating, Blackgrass (blackgrass [1]; [18]): 90
Blackgrass plant response rating (blackgrass [1]; [19]): 90
Plant response rating, Ragweed (ragweed; [12]): 85
Plant response rating, Ragweed (ragweed; [13]): 60
Pigweed plant response rating (pigweed [2]): 65
Plant response rating, Pigweed (pigweed [2]; [14]): 90
Plant response rating, Pigweed (pigweed [2]; [15]): 80
Plant response rating (scale of 0 to 100 where 0 is no effect and 100 is complete control), Morningglory (morningglory [3]): 80
Morningglory plant response rating (morningglory [3]): 95
Plant response rating, Morningglory (morningglory [3]; [14]): 98
Plant response rating, Morningglory (morningglory [3]; [15]): 85
Barnyardgrass plant response rating (barnyardgrass; [8]): 98
Barnyardgrass plant response rating (barnyardgrass; [9]): 100
Plant response rating, Barnyardgrass (barnyardgrass; [18]): 100
Barnyardgrass plant response rating (barnyardgrass; [19]): 100
Ryegrass, Italian plant response rating (ryegrass, Italian; [8]): 65
Ryegrass, Italian plant response rating (ryegrass, Italian; [9]): 90
Plant response rating, Ryegrass, Italian (ryegrass, Italian; [18]): 90
Ryegrass, Italian plant response rating (ryegrass, Italian; [19]): 90
Johnsongrass plant response rating (johnsongrass; [8]): 85
Johnsongrass plant response rating (johnsongrass; [9]): 85
Plant response rating, Johnsongrass (johnsongrass; [18]): 100
Johnsongrass plant response rating (johnsongrass; [19]): 100
Wheat plant response rating (0 to 100 scale) (wheat; [20]): 80
Wheat plant response rating (wheat; [17]): 100
Plant response rating (scale of 0 to 100 where 0 is no effect and 100 is complete control), Blackgrass (blackgrass [4]): 20
Blackgrass plant response rating (blackgrass [4]): 5
Plant response rating, Blackgrass (blackgrass [4]; [14]): 60
Plant response rating, Blackgrass (blackgrass [4]; [15]): 15
Morningglory plant response rating (morningglory [5]; [8]): 85
Morningglory plant response rating (morningglory [5]; [9]): 100
Plant response rating, Morningglory (morningglory [5]; [18]): 100
Morningglory plant response rating (morningglory [5]; [19]): 100
Corn plant response rating (0 to 100 scale) (corn; [20]): 10
Corn plant response rating (corn; [17]): 90
Pigweed plant response rating (pigweed [6]; [8]): 100
Pigweed plant response rating (pigweed [6]; [9]): 100
Plant response rating, Pigweed (pigweed [6]; [18]): 98
Pigweed plant response rating (pigweed [6]; [19]): 98
Morningglory plant response rating (0 to 100 scale) (morningglory [7]; [20]): 100
Morningglory plant response rating (morningglory [7]; [17]): 100
